According to ChEMBL document CHEMBL6083292, “Discovery of Novel N-Sulfonamide-tetrahydroquinolines as Potent Retinoic Acid Receptor-Related Orphan Receptor γt (RORγt) Inverse Agonists for the Treatment of Psoriasis” (J Med Chem, 2024):
Values belong to the compound of their own block, whether it stands above or below them. Calls of active or inactive are those of the source. The rule behind the calls is not given here.

Legend:
[1] = molecular target: T1, Nuclear receptor ROR-gamma (Homo sapiens, UniProt P51449); assay: Inverse agonist activity at APC-labeled RORgammat LBD (unknown origin) assessed as inhibition of europium-labeled SRC-1 recruitment incubated for 1 hrs by dual FRET assay
T1 sequence (P51449 whole entry): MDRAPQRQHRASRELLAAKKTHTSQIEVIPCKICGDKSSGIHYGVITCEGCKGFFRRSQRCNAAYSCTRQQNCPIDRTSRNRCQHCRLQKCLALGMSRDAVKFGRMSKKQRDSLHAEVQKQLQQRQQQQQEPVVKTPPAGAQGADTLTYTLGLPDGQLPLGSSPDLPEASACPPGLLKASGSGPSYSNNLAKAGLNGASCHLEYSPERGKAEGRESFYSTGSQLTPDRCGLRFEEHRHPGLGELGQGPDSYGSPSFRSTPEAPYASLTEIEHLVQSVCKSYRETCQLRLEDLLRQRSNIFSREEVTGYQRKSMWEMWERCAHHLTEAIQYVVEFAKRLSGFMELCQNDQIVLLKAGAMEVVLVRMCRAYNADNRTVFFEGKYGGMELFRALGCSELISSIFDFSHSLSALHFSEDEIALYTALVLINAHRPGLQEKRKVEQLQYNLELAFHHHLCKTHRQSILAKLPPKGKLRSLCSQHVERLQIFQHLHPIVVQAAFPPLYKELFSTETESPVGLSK

[2] = test system: Mus musculus; assay: Antiinflammatory activity against imiquimod-induced psoriasis BALB/c mouse model assessed as body weight at 5 mg/kg, ip qd for 7 days; assay type: functional; conditions: time 7 day
[3] = test system: Mus musculus; assay: Antiinflammatory activity against imiquimod-induced psoriasis BALB/c mouse model assessed as reduction in body weight at 5 mg/kg, ip qd for 7 days; assay type: functional; design: scale not given: the % may be the effect or the level left; conditions: time 7 day
[4] = test system: Mus musculus; assay: Antiinflammatory activity against imiquimod-induced psoriasis BALB/c mouse model assessed as reduction in spleen to body weight ratio at 5 mg/kg, ip qd for 7 days; assay type: functional, organism-based; conditions: time 7.0 day
[5] = Inhibition of mouse Th17 cells differentiation from CD4+ T cells assessed as maximum inhibition flow cytometric analysis relative to control; assay type: functional
[6] = test system: Mus musculus; assay: Antiinflammatory activity against imiquimod-induced psoriasis BALB/c mouse model assessed as reduction in body weight at 100 mg/kg, ip qd for 7 days; assay type: functional; design: scale not given: the % may be the effect or the level left; conditions: time 7 day
[7] = Drug concentration in pig ear assessed as retention rate at 0.0090 g administered intradermally as 4 % ointment measured at 12 hrs; assay type: ADME, tissue-based, Sus scrofa; conditions: in vivo, other
[8] = test system: Mus musculus; assay: Antiinflammatory activity against imiquimod-induced psoriasis BALB/c mouse model assessed as body weight at 100 mg/kg, ip qd for 7 days; assay type: functional; conditions: time 7 day
[9] = molecular target: Voltage-gated inwardly rectifying potassium channel KCNH2 (Homo sapiens, UniProt Q12809); assay: Inhibition of hERG at -80 mV holding potential measured for 2.5 mins; assay type: toxicity
[10] = Drug concentration in pig ear assessed as retention amount at 0.0094 g administered intradermally as 4 % ointment measured at 12 hrs; assay type: ADME, tissue-based, Sus scrofa; conditions: in vivo, other
[11] = test system: Mus musculus; assay: Antiinflammatory activity against imiquimod-induced psoriasis BALB/c mouse model assessed as change in ear thickness at 100 mg/kg, ip qd for 7 days; assay type: functional, organism-based; conditions: time 7.0 day
[12] = Acute toxicity in BALB/c mouse assessed as signs of mortality at 10 to 20 % administered topically as ointment once a day for 12 days; conditions: in vivo, topical_or_ocular, 288 h, dose 10-20 %, time 12 day
[13] = Metabolic stability in CD-1 mouse liver assessed as intrinsic clearance preincubated for 5 mins followed by NADPH addition and measured upto 60 mins by LC-MS/MS analysis; assay type: ADME, tissue-based; conditions: time < 65 min, read-out: CLH
[14] = test system: Mus musculus; assay: Anti-inflammatory activity in imiquimod-induced BALB/c mouse psoriasis model assessed as improvement in spinous cell layer at 4 % administered topically as ointment once a day for 11 days by H and E staining based analysis; assay type: functional, organism-based; conditions: time 11.0 day
[15] = Acute toxicity in BALB/c mouse assessed as signs of morbidity at 10 to 20 % administered topically as ointment once a day for 12 days; conditions: in vivo, topical_or_ocular, 288 h, dose 10-20 %, time 12 day
[16] = test system: Mus musculus; assay: Antiinflammatory activity against imiquimod-induced psoriasis BALB/c mouse model at 4 % administered topically as ointment once a day for 11 days; assay type: functional, organism-based; conditions: time 11.0 day
[17] = Inhibition of mouse Th17 cells differentiation from CD4+ T cells flow cytometric analysis
[18] = Drug concentration in pig ear assessed as retention rate at 0.0094 g administered intradermally as 4 % ointment measured at 12 hrs; assay type: ADME, tissue-based, Sus scrofa; conditions: in vivo, other
[19] = Acute toxicity in BALB/c mouse assessed as body weight gain at 10 to 20 % administered topically as ointment once a day for 12 days; conditions: in vivo, topical_or_ocular, 288 h, dose 10-20 %, time 12 day
[20] = Metabolic stability in CD-1 mouse microsomes assessed as intrinsic clearance preincubated for 5 mins followed by NADPH addition and measured upto 60 mins by LC-MS/MS analysis; assay type: ADME, Microsome; conditions: time < 65 min, read-out: CLH
[21] = Drug concentration in BALB/c mouse plasma at 4 % administered topically as ointment measured at 10 mins; assay type: ADME, cell-free; conditions: topical or ocular
[22] = test system: Mus musculus; assay: Anti-inflammatory activity in imiquimod-induced BALB/c mouse psoriasis model assessed as appearance of clear sebaceous gland at 4 % administered topically as ointment once a day for 11 days by H and E staining based analysis; assay type: functional, organism-based; conditions: time 11.0 day
[23] = test system: Mus musculus; assay: Antiinflammatory activity against imiquimod-induced psoriasis BALB/c mouse model at 0.25 to 4 % administered topically as ointment once a day for 11 days; assay type: functional, organism-based; conditions: dose 0.25-4 %, time 11.0 day
[24] = test system: Mus musculus; assay: Anti-inflammatory activity in imiquimod-induced BALB/c mouse psoriasis model assessed as reduction in dermal inflammatory cell infiltration at 4 % administered topically as ointment once a day for 11 days by H and E staining based analysis; assay type: functional, organism-based; conditions: time 11.0 day
[25] = Drug concentration in pig ear assessed as retention amount at 0.0090 g administered intradermally as 4 % ointment measured at 12 hrs; assay type: ADME, tissue-based, Sus scrofa; conditions: in vivo, other
[26] = Drug concentration in BALB/c mouse plasma at 4 % administered topically as ointment measured at 2 hrs; assay type: ADME, cell-free; conditions: topical_or_ocular
[27] = test system: Mus musculus; assay: Antiinflammatory activity against imiquimod-induced psoriasis BALB/c mouse model assessed as change in ear erythema score at 100 mg/kg, ip qd for 7 days; assay type: functional, organism-based; conditions: time 7.0 day
[28] = Toxicity in BALB/c mouse assessed as change in body weight at 0.25 to 4 % administered topically as ointment once a day for 11 days; conditions: in vivo, topical_or_ocular, 264 h, dose 0.25-4 %, time 11 day
[29] = test system: Mus musculus; assay: Anti-inflammatory activity in imiquimod-induced BALB/c mouse psoriasis model assessed as appearance of clear hair follicle at 4 % administered topically as ointment once a day for 11 days by H and E staining based analysis; assay type: functional, organism-based; conditions: time 11.0 day
[30] = Drug concentration in pig ear assessed as retention rate at 0.0085 g administered intradermally as 4 % ointment measured at 12 hrs; assay type: ADME, tissue-based, Sus scrofa; conditions: in vivo, other
[31] = test system: Mus musculus; assay: Antiinflammatory activity against imiquimod-induced psoriasis BALB/c mouse model assessed as effect on spleen enlargement at 100 mg/kg, ip qd for 7 days; assay type: functional, organism-based; conditions: time 7.0 day
[32] = Drug concentration in pig ear assessed as retention rate at 0.0086 g administered intradermally as 4 % ointment measured at 12 hrs; assay type: ADME, tissue-based, Sus scrofa; conditions: in vivo, other
[33] = Drug concentration in pig ear assessed as retention amount at 0.0085 g administered intradermally as 4 % ointment measured at 12 hrs; assay type: ADME, tissue-based, Sus scrofa; conditions: in vivo, other
[34] = test system: Mus musculus; assay: Antiinflammatory activity against imiquimod-induced psoriasis BALB/c mouse model at 1 to 4 % administered topically as ointment once a day for 11 days; assay type: functional, organism-based; conditions: time 11.0 day
[35] = Metabolic stability in CD-1 mouse liver microsomes assessed as half life preincubated for 5 mins followed by NADPH addition and measured upto 60 mins by LC-MS/MS analysis; assay type: ADME, Microsome; conditions: time < 65 min
[36] = test system: Mus musculus; assay: Anti-inflammatory activity in imiquimod-induced BALB/c mouse psoriasis model assessed as appearance of smooth skin at 4 % administered topically as ointment once a day for 11 days by H and E staining based analysis; assay type: functional, organism-based; conditions: time 11.0 day
[37] = Acute toxicity in BALB/c mouse at 20 % administered topically as ointment once a day for 12 days; conditions: in vivo, topical_or_ocular, 288 h, time 12 day
[38] = Toxicity in BALB/c mouse assessed as change in body weight at 4 % administered topically as ointment once a day for 11 days; conditions: in vivo, topical_or_ocular, 264 h, time 11 day

Voltage-gated inwardly rectifying potassium channel KCNH2, sequence (Q12809 whole entry): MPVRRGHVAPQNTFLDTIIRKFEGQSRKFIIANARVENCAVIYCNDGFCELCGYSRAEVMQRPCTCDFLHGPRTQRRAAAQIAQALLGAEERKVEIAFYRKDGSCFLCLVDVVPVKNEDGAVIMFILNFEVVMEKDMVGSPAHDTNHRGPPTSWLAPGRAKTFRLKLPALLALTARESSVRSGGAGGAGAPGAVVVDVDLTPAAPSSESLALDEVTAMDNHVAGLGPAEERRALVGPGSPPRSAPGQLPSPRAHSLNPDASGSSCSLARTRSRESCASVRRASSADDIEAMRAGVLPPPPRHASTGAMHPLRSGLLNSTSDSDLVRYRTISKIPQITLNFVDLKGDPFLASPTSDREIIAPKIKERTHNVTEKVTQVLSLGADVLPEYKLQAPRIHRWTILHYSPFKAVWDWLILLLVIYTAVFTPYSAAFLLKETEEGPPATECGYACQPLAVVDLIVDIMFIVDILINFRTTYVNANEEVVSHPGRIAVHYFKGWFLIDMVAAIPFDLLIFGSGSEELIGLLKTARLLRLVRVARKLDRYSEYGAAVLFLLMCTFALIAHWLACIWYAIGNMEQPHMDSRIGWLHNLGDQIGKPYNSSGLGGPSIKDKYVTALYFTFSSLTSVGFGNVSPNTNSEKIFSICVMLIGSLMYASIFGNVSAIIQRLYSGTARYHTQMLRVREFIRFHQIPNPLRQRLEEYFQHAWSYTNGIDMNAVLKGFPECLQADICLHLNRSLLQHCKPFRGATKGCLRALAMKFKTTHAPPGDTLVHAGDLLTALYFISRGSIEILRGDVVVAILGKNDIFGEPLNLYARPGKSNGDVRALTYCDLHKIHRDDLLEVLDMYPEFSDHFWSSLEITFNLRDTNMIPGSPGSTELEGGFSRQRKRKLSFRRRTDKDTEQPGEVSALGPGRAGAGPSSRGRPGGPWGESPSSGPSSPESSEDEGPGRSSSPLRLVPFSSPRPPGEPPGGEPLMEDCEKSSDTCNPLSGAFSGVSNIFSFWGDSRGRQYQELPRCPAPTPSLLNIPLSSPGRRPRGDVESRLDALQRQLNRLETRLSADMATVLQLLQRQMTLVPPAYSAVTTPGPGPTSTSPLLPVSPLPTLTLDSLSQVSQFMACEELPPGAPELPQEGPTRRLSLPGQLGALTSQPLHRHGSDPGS

Compound: CCc1ccc(N(C)S(=O)(=O)N2CCCc3cc(N4CCN(C(C)=O)CC4)ccc32)cc1
IC50 [1]: 13.1 µM

Compound: CC(=O)N1CCN(c2ccc3c(c2)N(S(=O)(=O)N(C)Cc2ccccc2)CCC3)CC1
IC50 [1]: 0.097 µM

Compound: CC(=O)N1CCN(c2ccc3c(c2)CCCN3S(=O)(=O)N(C)C(C)c2ccc(F)cc2)CC1 (stereo not drawn)
IC50 [1]: 27 µM

Compound: C[C@@H]1C[C@H]2[C@@H]3CCC4=CC(=O)C=C[C@]4(C)[C@@]3(F)[C@@H](O)C[C@]2(C)[C@@]1(O)C(=O)CO [DEXAMETHASONE]
Activity [2]: 3.43 g
Activity [3]: 18%
Activity [4]: Active

Compound: CN(Cc1ccc(C(C)(C)C)cc1)S(=O)(=O)N1CCCc2cc(N3CCC(C(=O)O)CC3)ccc21
IC50 [1]: 0.29 µM

Compound: CN(Cc1ccccc1)S(=O)(=O)N1CCCc2cc(N3CCN(C(=O)C4CCCC4)CC3)ccc21
IC50 [1]: 3.3 µM

Compound: CC(=O)N1CCN(c2cc(F)c3c(c2)CCCN3S(=O)(=O)N(C)Cc2ccccc2)CC1
IC50 [1]: 0.021 µM

Compound: CC(=O)N1CCN(c2ccc(CN(C3CCC3)S(=O)(=O)Cc3ccccc3)cc2)CC1
Imax [5]: 90.1%

Compound: CC(=O)N1CCN(c2ccc3c(c2)C(C)(C)CCN3S(=O)(=O)N(C)Cc2ccccc2)CC1
IC50 [1]: 9.5 µM

Compound: CC(=O)N1CCN(c2ccc3c(c2)CCCN3S(=O)(=O)N(C)Cc2ccc(SC(F)(F)F)cc2)CC1
IC50 [1]: 6.6 µM

Compound: CN(Cc1ccc(C(C)(C)C)cc1)S(=O)(=O)N1CCCc2cc(Nc3ccc4c(c3)CCCC4=O)ccc21
IC50 [1]: 0.094 µM
Activity [6]: 13%
Drug uptake [7]: 3.27%
Activity [8]: 2.41 g
IC50 [9]: > 40 µM
Drug uptake [10]: 0.012 mg
Activity [11]: Active
Activity [12]: Non-toxic
CLint scaled [13]: 301 mL/min/kg
Activity [14]: Active
Activity [15]: Non-toxic
Activity [16]: Active
IC50 [17]: 1.57 µM
Drug uptake [18]: 5.22%
Activity [19]: Non-toxic
microsomal CLint [20]: 76 µL/min/mg
concentration at 10 min [21]: 75 ng/mL
Activity [22]: Active
Activity [23]: Active
Activity [24]: Active
Imax [5]: 95%
Drug uptake [25]: 0.012 mg
Drug uptake [26]: Not_active
Activity [27]: Active
Activity [28]: Non-toxic
Activity [29]: Active
Drug uptake [30]: 5.79%
Activity [31]: Active
Drug uptake [32]: 4.82%
Drug uptake [33]: 0.019 mg
Activity [34]: Active
half-life [35]: 18.2 min
Activity [36]: Active
Activity [37]: Non-toxic

Compound: CN(Cc1ccccc1)S(=O)(=O)N1CCCc2cc(N3CC4(CCOCC4)C3)ccc21
IC50 [1]: 19.1 µM

Compound: CCc1ccc(N(CC(C)C)S(=O)(=O)c2ccc(OCC3CCOCC3)c(CO)c2)cc1 [GSK2981278]
Activity [38]: Non-toxic
Activity [16]: Active

Compound: CC(=O)c1ccc(Nc2ccc3c(c2)CCCN3S(=O)(=O)N(C)Cc2ccccc2)cc1
IC50 [1]: 7.6 µM

Continued by falling IC50 [1], values first:

IC50 [1]: 27 µM
Compound: CC(=O)N1CCN(c2ccc3c(c2)CCCN3S(=O)(=O)N(C)Cc2ccc(C(F)(F)F)o2)CC1

IC50 [1]: 18.6 µM
Compound: CN(Cc1ccccc1)S(=O)(=O)N1CCCc2cc(N3CCN(C(=O)C4CCOC4)CC3)ccc21 (stereo not drawn)

IC50 [1]: 13 µM
Compound: CN(Cc1ccccc1)S(=O)(=O)N1CCCc2cc(N3CCN(C(=O)C4CCC4)CC3)ccc21

IC50 [1]: 9.2 µM
Compound: CCc1ccc(S(=O)(=O)N2CCCc3cc(N4CCN(C(C)=O)CC4)ccc32)cc1

IC50 [1]: 6.8 µM
Compound: CN(Cc1ccccc1)S(=O)(=O)N1CCCc2cc(N3CCN(C(=O)C4CCOCC4)CC3)ccc21

IC50 [1]: 4.9 µM
Compound: CN(Cc1ccccc1)S(=O)(=O)N1CCCc2cc(N3CCN(C(=O)C(F)(F)F)CC3)ccc21

IC50 [1]: 1.4 µM
Compound: CC(=O)N1CCN(c2ccc3c(c2)CCCN3S(=O)(=O)N(C)Cc2ccc(C(O)(C(F)(F)F)C(F)(F)F)cc2)CC1

IC50 [1]: 0.648 µM
Compound: CN(Cc1ccccc1)S(=O)(=O)N1CCCc2cc(N3CC4(COC4)C3)ccc21
